Laboratory results as given in patent US20060069132A1, “Azolecarboxamide herbicides” (priority 2004, published 2006).

Experiments:
wheat = assay: Test B postemergence herbicide test; assay type: in vivo, Triticum aestivum; parameters: key to Wheat plant response rating: 0 = no effect, 100 = complete control; details: postemergence, visual rating, scale 0 (no effect) to 100 (complete control)
How it was run: (§1)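 Each value is a visual 0–100 response rating taken against controls 13 to 15 days after treatment in the greenhouse. Plants received formulated chemical postemergence at the 1- to 4-leaf stage or, in flooded paddy, at the 2-leaf stage.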

rice [1] = assay: Test B flooded paddy test; assay type: in vivo, Oryza sativa; details: 1000 g ai/ha, visual rating, scale 0 to 100 (0 no effect, 100 complete control), 13 to 15 days
How it was run: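 Scale 0–100: zero equals no visible effect, 100 complete control, judged by eye relative to controls. Timing: 13 to 15 days in greenhouse post-treatment. Growth stage at spraying: two leaves (paddy) or one to four leaves, 2–18 cm (postemergence).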

Surinam grass = assay: Test B pre-/postemergence herbicide test; assay type: in vivo, Urochloa decumbens; details: for Surinam Grass plant response rating: postemergence, visual rating, scale 0 (no effect) to 100 (complete control)
How it was run: (§2)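 Formulation: non-phytotoxic solvent mix with surfactant. Timing: preemergence on seed and postemergence on 2–18 cm plants, applied concurrently. Readout after 13–15 d greenhouse: visual 0–100 control rating against controls.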

blackgrass = assay: Test B postemergence herbicide test; assay type: in vivo, Alopecurus myosuroides; details: postemergence, visual rating, scale 0 (no effect) to 100 (complete control)
How it was run: (§3)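 Greenhouse test; postemergence application to plants at 1–4 leaves (2–18 cm); paddy species at 2 leaves; evaluated visually vs controls at 13–15 days; scale 0–100 (100 = complete control).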

wild oat = assay: Test B postemergence herbicide test; assay type: in vivo, Avena fatua; details: postemergence, visual rating, scale 0 (no effect) to 100 (complete control)
How it was run: as §1

ducksalad = assay: Test B flooded paddy test; assay type: in vivo, Heteranthera limosa; details: 1000 g ai/ha, visual rating, scale 0 to 100 (0 no effect, 100 complete control), 13 to 15 days
How it was run: as §3

giant foxtail = assay: Test B pre-/postemergence herbicide test; assay type: in vivo, Setaria faberi; details: for Foxtail, Giant plant response rating: postemergence, visual rating, scale 0 (no effect) to 100 (complete control)
How it was run: as §2

pigweed = assay: Test B pre-/postemergence herbicide test; assay type: in vivo, Amaranthus retroflexus; details: for Pigweed plant response rating: postemergence, visual rating, scale 0 (no effect) to 100 (complete control)
How it was run: as §2

[2] = system: small flower umbrella sedge; assay: Test B flooded paddy test; assay type: in vivo, Cyperus difformis; details: 1000 g ai/ha, visual rating, scale 0 to 100 (0 no effect, 100 complete control), 13 to 15 days
How it was run: as §3

corn = assay: Test B pre-/postemergence herbicide test; assay type: in vivo, Zea mays; details: for Corn plant response rating: postemergence, visual rating, scale 0 (no effect) to 100 (complete control)
How it was run: as §2

lambsquarters = assay: Test B pre-/postemergence herbicide test; assay type: in vivo, Chenopodium album; details: for Lambsquarters plant response rating: postemergence, visual rating, scale 0 (no effect) to 100 (complete control)
How it was run: as §2

barnyardgrass [3] = assay: Test B flooded paddy test; assay type: in vivo, Echinochloa crus-galli; details: 1000 g ai/ha, visual rating, scale 0 to 100 (0 no effect, 100 complete control), 13 to 15 days
How it was run: as §3

barnyardgrass [4] = assay: Test B pre-/postemergence herbicide test; assay type: in vivo, Echinochloa crus-galli; details: for Barnyardgrass plant response rating: postemergence, visual rating, scale 0 (no effect) to 100 (complete control)
How it was run: (§4)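 Greenhouse pot assay with simultaneous preemergence (treated seed) and postemergence (2–18 cm seedlings) applications of surfactant-containing, non-phytotoxic solvent formulations. Response scored visually 13–15 days later on a 0–100 scale, 100 meaning complete control.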

cocklebur = assay: Test B pre-/postemergence herbicide test; assay type: in vivo, Xanthium strumarium; details: for Cocklebur plant response rating: postemergence, visual rating, scale 0 (no effect) to 100 (complete control)
How it was run: as §4

morningglory = assay: Test B pre-/postemergence herbicide test; assay type: in vivo, Ipomoea coccinea; details: for Morningglory plant response rating: postemergence, visual rating, scale 0 (no effect) to 100 (complete control)
How it was run: as §4

rice [5] = assay: Test B pre-/postemergence herbicide test; assay type: in vivo, Oryza sativa; details: preemergence
How it was run: as §2

large crabgrass = assay: Test B pre-/postemergence herbicide test; assay type: in vivo, Digitaria sanguinalis; details: for Crabgrass, Large plant response rating: postemergence, visual rating, scale 0 (no effect) to 100 (complete control)
How it was run: as §2

velvetleaf = assay: Test B pre-/postemergence herbicide test; assay type: in vivo, Abutilon theophrasti; details: for Velvetleaf plant response rating: postemergence, visual rating, scale 0 (no effect) to 100 (complete control)
How it was run: as §2

[6] = 125 g ai/ha, 0 = no effect, 100 = complete control, preemergence
[7] = 500 g ai/ha, visual rating 0-100, 0 no effect, 100 complete control, preemergence

CCNC(=O)c1cccc(NC(=O)c2nn(C(C)(C)C)cc2C(F)(F)F)c1 [Compound 170]
Wheat plant response rating (wheat; 125 g ai/ha): 0 | Wheat plant response rating (wheat; 500 g ai/ha): 0 | Rice plant response rating (rice [1]): 20 | Surinam Grass plant response rating (0 to 100 scale) (Surinam grass; [6]): 0 | Plant response rating, Surinam Grass (Surinam grass; [7]): 30 | Surinam Grass plant response rating (Surinam grass; 125 g ai/ha): 10 | Surinam Grass plant response rating (Surinam grass; 500 g ai/ha): 10 | Blackgrass plant response rating (blackgrass; 125 g ai/ha): 0 | Blackgrass plant response rating (blackgrass; 500 g ai/ha): 0 | Oat, Wild plant response rating (wild oat; 125 g ai/ha): 10 | Oat, Wild plant response rating (wild oat; 500 g ai/ha): 10 | Ducksalad plant response rating (ducksalad): 0 | Foxtail, Giant plant response rating (0 to 100 scale) (giant foxtail; [6]): 0 | Plant response rating, Foxtail, Giant (giant foxtail; [7]): 20 | Foxtail, Giant plant response rating (giant foxtail; 125 g ai/ha): 0 | Foxtail, Giant plant response rating (giant foxtail; 500 g ai/ha): 10 | Pigweed plant response rating (0 to 100 scale) (pigweed; [6]): 0 | Plant response rating, Pigweed (pigweed; [7]): 90 | Pigweed plant response rating (pigweed; 125 g ai/ha): 30 | Pigweed plant response rating (pigweed; 500 g ai/ha): 50 | Sedge, Umbrella plant response rating [2]: 20 | Corn plant response rating (0 to 100 scale) (corn; [6]): 0 | Plant response rating, Corn (corn; [7]): 0 | Corn plant response rating (corn; 125 g ai/ha): 0 | Corn plant response rating (corn; 500 g ai/ha): 10 | Lambsquarters plant response rating (0 to 100 scale) (lambsquarters; [6]): 0 | Plant response rating, Lambsquarters (lambsquarters; [7]): 80 | Lambsquarters plant response rating (lambsquarters; 125 g ai/ha): 60 | Lambsquarters plant response rating (lambsquarters; 500 g ai/ha): 70 | Barnyardgrass plant response rating (barnyardgrass [3]): 10 | Barnyardgrass plant response rating (0 to 100 scale) (barnyardgrass [4]; [6]): 0 | Plant response rating, Barnyardgrass (barnyardgrass [4]; [7]): 30 | Barnyardgrass plant response rating (barnyardgrass [4]; 125 g ai/ha): 0 | Barnyardgrass plant response rating (barnyardgrass [4]; 500 g ai/ha): 10 | Cocklebur plant response rating (0 to 100 scale) (cocklebur; [6]): 0 | Plant response rating, Cocklebur (cocklebur; [7]): 0 | Cocklebur plant response rating (cocklebur; 125 g ai/ha): 0 | Cocklebur plant response rating (cocklebur; 500 g ai/ha): 0 | Morningglory plant response rating (0 to 100 scale) (morningglory; [6]): 0 | Plant response rating, Morningglory (morningglory; [7]): 10 | Morningglory plant response rating (morningglory; 125 g ai/ha): 30 | Morningglory plant response rating (morningglory; 500 g ai/ha): 80 | Rice plant response rating (0 to 100 scale) (rice [5]; 125 g ai/ha, 0 = no effect, 100 = complete control): 0 | Plant response rating, Rice (rice [5]; 500 g ai/ha, visual rating 0-100, 0 no effect, 100 complete control): 0 | Crabgrass, Large plant response rating (0 to 100 scale) (large crabgrass; [6]): 20 | Plant response rating, Crabgrass, Large (large crabgrass; [7]): 80 | Crabgrass, Large plant response rating (large crabgrass; 125 g ai/ha): 10 | Crabgrass, Large plant response rating (large crabgrass; 500 g ai/ha): 10 | Velvetleaf plant response rating (0 to 100 scale) (velvetleaf; [6]): 0 | Plant response rating, Velvetleaf (velvetleaf; [7]): 20 | Velvetleaf plant response rating (velvetleaf; 125 g ai/ha): 10 | Velvetleaf plant response rating (velvetleaf; 500 g ai/ha): 20
